Laboratory results taken from patent US20030040507A1, “Pharmaceutical composition comprising ifosfamide and carnitine” (priority 1997, published 2003).

Columns and labels:
[1] = test system: proximal tubule of the kidneys; assay: comparative investigation of nephrotoxicity in healthy and tumour-bearing rats; assay type: in vivo
Description: In accordance with the set object, comparative investigations were investigated [sic] out with respect to effect on the nephrotoxicity in healthy and tumour-bearing rats after administration of ifosfamide on its own and in combination with L-carnitine. The doses for L-carnitine were selected such that the compound itself causes no side effects at all in the animals.

[2] = test system: rats; details: L-carnitine together with ifosfamide; cited from earlier work
[3] = test system: tumour-bearing rats; assay: antitumour action of ifosfamide in combination with L-carnitine; assay type: in vivo; details: FIGS. 1 and 2

## C[N+](C)(C)C[C@H](O)CC(=O)[O-] [L-carnitine]
[1]; simultaneous administration of L-carnitine 2×100 mg/kg i.v. with ifosfamide, rats
  effect on ifosfamide-induced damage to the proximal tubule of the kidney: antagonized significantly
[2]
  clinical result: decreased lethargy

## O=P1(NCCCl)OCCCN1CCCl (stereo not shown) [ifosfamide]
[1]; ifosfamide on its own, healthy and tumour-bearing rats (both animal groups)
  damage to the proximal tubule of the kidneys: clear dose-dependent damage
[3]
  antitumour action of ifosfamide: not affected
